Measured values: patent US20240124467A1, “FUSED PYRIMIDINE COMPOUNDS AS INHIBITORS OF MENIN-MLL INTERACTION” (Biomea Fusion, Inc., priority 2020, published 2024)
Like-named read-outs stand apart in the source and are kept apart here.

Legend:
Type in all cases: cell-based
MV4-11 = test: Cell proliferation inhibition (CellTiter-Glo), MV4-11 cells; details: Homo sapiens, MV4-11 (MLL-AF4)
Experimental: (§1) The present example evaluates the ability of compounds described herein, inhibitors of Menin/MLL interaction, to inhibit cell proliferation. The proliferation inhibitory effect was investigated in human MLL-leukemia cells selected on the bases of MLL fusion proteins and listed in the table below.
(§2) ATP is present in all metabolically active cells and is considered as a marker for cell viability and proliferation. The metabolic cell activity was determined using the CellTiter-Glo kit from Promega, an ATP monitoring system based on the production of luminescence by the reaction of ATP with added UltraGlo® recombinant luciferase (Kawano et al., 2016, PLOS One, 8:11(7):e0158888), according to the supplier's experimental recommendations. The assay is based on a 96 well plate format. All experiments were carried out in duplicate in one test occasion.
(§3) Test items were dissolved at 20 mM in DMSO with purity ≥99.9% (Sigma catalog no. D8418) and stored at −20° C. Cells were maintained in RPMI-1640 medium (Invitrogen catalog no. 618700) supplemented with 10% of Heat Inactivated FBS (Invitrogen catalog no. 10500) and 1% Pen-Strep (Invitrogen catalog no. 15140) and cultured at 37° C. in a humidified incubator with 5% CO2. Cell lines were grown in suspension and the cell density was maintained in a range of 5×10^4-1×10^6 viable cells/ml where possible. Cells were pelleted at 130 g×5 min.
(§4) Serial dilutions of compounds 1 to 3 in DMSO 100% were prepared starting from a 2.5 mM solutions (prepared by diluting 1:8 the 20 mM stock solution) to generate a 7 point concentration response curve (CRC). Seven concentrations of test compounds (e.g., 5.00×10^−6-1.67×10^−6-5.56×10^−7-1.85×10^−7-6.17×10^−8-2.06×10^−8-6.86×10^−9 M) were assessed in duplicate in an individual test occasion in parallel in the selected cell lines. KO-539 was used as a reference compound and tested in duplicate at seven similar concentrations. 100% of proliferation was represented by the untreated cells (0.2% DMSO).
(§5) Cell proliferation inhibition was monitored at both the following end points: Day 4 (T4) and Day 7 (T7). For the appropriate cell density during the exponential cell growth and re-supply with fresh compound solution at T4, cells were diluted (1:4) with fresh medium containing the compound concentration (1×).
(§6) For each plate to test, one 0.4 μL copy plate and four 0.3 μL copy plates were stamped into 96-well plates not treated for cell adhesion (Sarstedt—cat. no. 82.1581.001) by acoustic liquid handling (Echo) at a concentration which was 500 fold the final assay concentration. Stamped plates were stored at −20° C.
(§7) On Day 0, the day of the experiment cell line suspensions were counted by Cell Viability Analyser, Vi-CELL (Beckman Coulter AY15292), and diluted with fresh medium to obtain the following cell densities: K-562 500 c/ml, MOLM-13 1,000 c/ml, MV4-11 10,000 c/ml, OCI-AML-3 500 c/ml, and U-937 500-1,000 c/ml. 200 μL/well and 150 μL/well of cell suspension were added into the 0.4 μL/well and 0.3 μL/well compound plates, respectively. Cell plate containing 200 μL/well suspension were incubated at 37° C. in a humidified incubator with 5% CO2. From each well of the 150 μL/well cell assay plate, 100 μL were harvested and transferred into a 96-well Optiplate (Perkin Elmer, cat. no. 6005290). Cell viability was measured as described below.
(§8) On Day 4, 150p/well of fresh medium was added into a new 0.3 μL/well copy compound plates. From each well of the 200 μL/well cell assay plate, 100 μL was sampled for the cell viability measurement as described below. 50p was harvested and added to the 150p/well compound plate prepared as described in the first point to dilute 1:4 the cell suspension. The cell assay plate diluted and containing 200 μL/well suspension was incubated at 37° C. in a humidified incubator with 5% CO2.
(§9) On Day 4, 150p/well of fresh medium was added into a new 0.3 μL/well copy compound plates. […]

MOLM-13 = test: Cell proliferation inhibition (CellTiter-Glo), MOLM-13 cells; details: Homo sapiens, MOLM-13 (MLL-AF9)
Experimental: as §1, §2, §3, §4, §5, §6, §7, §8, §9

K-562 = test: Cell proliferation inhibition (CellTiter-Glo), K-562 cells; details: Homo sapiens, K-562 (BCR-ABL)
Experimental: as §1, §2, §3, §4, §5, §6, §7, §8, §9

[1] = 96 h, Day 4, read-out: MV-4:11 IC50 μM (Day 4)*
[2] = 96 h, Day 4, read-out: MOLM-13 Day IC50 μM (Day 4)*
[3] = K562, 96 h, Day 4, read-out: K-562 IC50 μM (Day 4)

Structure (SMILES) | IC50 (MV4-11; [1]) [µM] | IC50 (MOLM-13; [2]) [µM] | IC50 (K-562; [3]) [µM] | IC50 (MV4-11; 168 h, Day 7, read-out: MV-4:11 IC50 μM (Day 7)*) [µM] | IC50 (MOLM-13; 168 h, Day 7, read-out: MOLM-13 Day IC50 μM (Day 7)*) [µM] | IC50 (K-562; K562, 168 h, Day 7, read-out: K-562 IC50 μM (Day 7)*) [µM]
C=CC(=O)N[C@@H]1CCCN(Cc2ccnc(C(=O)NC3CCN(c4nc5c(N6CCOCC6)ncnc5s4)CC3)c2)C1 [Compound B0700-310, (R)-4-((3-acrylamidopiperidin-1-yl)methyl)-N-(1-(7-morpholinothiazolo[5,4-d]pyrimidin-2-yl)piperidin-4-yl)picolinamide] | 8.92 | > 10 | 2.89 |  |  | 
C=CC(=O)NC1CN(c2ccnc(CC(=O)Nc3ccc(-c4cc5c(N6CCOCC6)ncnc5[nH]4)cc3)n2)C1 [Compound B0700-323, N-(1-(2-(2-((4-(4-morpholino-7H-pyrrolo[2,3-d]pyrimidin-6-yl)phenyl)amino)-2-oxoethyl)pyrimidin-4-yl)azetidin-3-yl)acrylamide] | 1.18 | 3.67 | > 10 |  |  | 
C=CS(=O)(=O)N[C@@H]1CCCN(Cc2ccnc(C(=O)Nc3ccc(-c4cc5c(N6CCOCC6)ncnc5[nH]4)cc3)c2)C1 [Compound B0700-333, (R)—N-(4-(4-morpholino-7H-pyrrolo[2,3-d]pyrimidin-6-yl)phenyl)-4-((3-(vinylsulfonamido)piperidin-1-yl)methyl)picolinamide] | 0.051 | 0.069 | 0.074 |  |  | 
Cc1cc(C)n2c1C=C1C=CC(CCC(=O)NCCCCN(C)C/C=C/C(=O)N[C@@H]3CCCN(Cc4ccnc(C(=O)Nc5ccc(-c6cc7c(N8CCOCC8)ncnc7[nH]6)cc5)c4)C3)=[N+]1[B-]2(F)F [Compound B0700-503] | 2.89 | 4.51 | 2.51 |  |  | 
Cc1cc(C)n2c1C=C1C=CC(CCC(=O)NCCCCN(C)C/C=C/C(=O)Nc3ccc(CC(=O)Nc4ccc(-c5cc6c(N7CCOCC7)ncnc6[nH]5)cc4)cc3)=[N+]1[B-]2(F)F [Compound B0700-504] | 1.6 | 1.23 | > 10 |  |  | 
C=CC(=O)NC1CN(c2ccnc(NC3CC4(CCN(c5nc6c(N7CCOCC7)ncnc6[nH]5)CC4)C3)c2)C1 [Compound B0700-507, N-(1-(2-((7-(6-morpholino-9H-purin-8-yl)-7-azaspiro[3.5]nonan-2-yl)amino)pyridin-4-yl)azetidin-3-yl)acrylamide] | 4.22 | 5.21 | > 10 |  |  | 
C=CC(=O)N[C@H]1CCN(c2cccc(CS(=O)(=O)Nc3ccc(-c4cc5c(N6CCOCC6)ncnc5[nH]4)cc3)c2)C1 [Compound B0700-511, (S)—N-(1-(3-((N-(4-(4-morpholino-7H-pyrrolo[2,3-d]pyrimidin-6-yl)phenyl)sulfamoyl)methyl)phenyl)pyrrolidin-3-yl)acrylamide] | 0.113 | 0.185 | 8.31 |  |  | 
C=CC(=O)N1CC(N2CCCC(CNS(=O)(=O)N3CCN(c4nc5c(N6CCOCC6)ncnc5[nH]4)CC3)C2)C1 (stereo not shown) [Compound B0700-512] | > 10 | > 10 | 5.18 |  |  | 
C=CC(=O)N[C@@H]1CCCN(Cc2ccnc(C(C)Nc3ccc(-c4cc5c(N6CCOCC6)ncnc5[nH]4)cc3)c2)C1 (stereo partly drawn) [Compound B0700-514, N-((3R)-1-((2-(1-((4-(4-morpholino-7H-pyrrolo[2,3-d]pyrimidin-6-yl)phenyl)amino)ethyl)pyridin-4-yl)methyl)piperidin-3-yl)acrylamide] | 0.651 | 0.631 | > 10 | 0.54 | 0.546 | > 10
C=CC(=O)N[C@@H]1CCCN(Cc2ccnc(C(=O)Nc3ccc(-c4cc5c(C6CCOCC6)ncnc5[nH]4)cc3)c2)C1 [Compound B0700-516, (R)-4-((3-acrylamidopiperidin-1-yl)methyl)-N-(4-(4-(tetrahydro-2H-pyran-4-yl)-7H-pyrrolo[2,3-d]pyrimidin-6-yl)phenyl)picolinamide] | 1.5 | 1.56 | 4.34 |  |  | 
C=CC(=O)N[C@@H]1CCCN(Cc2ccnc(C(=O)NC3CCN(c4nc5c(N6CCOCC6)ncnc5o4)CC3)c2)C1 [Compound B0700-518] | > 10 | > 10 | 5.3 |  |  | 
O=C(/C=C/Cc1cnc[nH]1)N[C@@H]1CCCN(Cc2ccnc(C(=O)Nc3ccc(-c4cc5c(N6CCOCC6)ncnc5[nH]4)cc3)c2)C1 [Compound B0700-523] | 0.232 | 0.213 | > 10 |  |  | 
CN(C/C=C/C(=O)N[C@@H]1CCCN(Cc2ccnc(C(=O)Nc3ccc(-c4cc5c(N6CCOCC6)ncnc5[nH]4)cc3)c2)C1)C1CC1 [Compound B0700-524, (R,E)-4-((3-(4-(cyclopropyl(methyl)amino)but-2-enamido)piperidin-1-yl)methyl)-N-(4-(4-morpholino-7H-pyrrolo[2,3-d]pyrimidin-6-yl)phenyl)picolinamide] | 0.764 | 0.683 | > 10 |  |  | 
CCN(C/C=C/C(=O)N[C@@H]1CCCN(Cc2ccnc(C(=O)Nc3ccc(-c4cc5c(N6CCOCC6)ncnc5[nH]4)cc3)c2)C1)C1CC1 [Compound B0700-525] | 0.634 | 0.506 | 6.7 |  |  | 
C=CC(=O)N[C@@H]1CCCN(Cc2ccnc(C(=O)NC3CCC(c4cc5c(N6CCOCC6)ncnc5[nH]4)CC3)c2)C1 (stereo partly drawn) [Compound B0700-526, (R)-4-((3-acrylamidopiperidin-1-yl)methyl)-N-(4-(4-morpholino-7H-pyrrolo[2,3-d]pyrimidin-6-yl)cyclohexyl)picolinamide] | 6.83 | 3.46 | > 10 |  |  | 
C=CC(=O)N[C@@H]1CCCN(Cc2ccnc(C(=O)NC3CC=C(c4cc5c(N6CCOCC6)ncnc5[nH]4)CC3)c2)C1 (stereo partly shown) [Compound B0700-527] | 0.371 | 0.607 | 2.89 |  |  | 
C=CC(=O)N[C@@H]1CCCN(Cc2ccnc(C(=O)Nc3ccc(-c4[nH]c5ncnc(N6CCOCC6)c5c4C)cc3)c2)C1 [Compound B0700-528] | 0.464 | 0.462 | 1.18 |  |  | 
C=CC(=O)N[C@@H]1CCCN(Cc2ccnc(C(=O)Nc3ccc(-c4cc5c(N6CCOCC6)ncnc5[nH]4)c(F)c3)c2)C1 [Compound B0700-529, (R)-4-((3-acrylamidopiperidin-1-yl)methyl)-N-(3-fluoro-4-(4-morpholino-7H-pyrrolo[2,3-d]pyrimidin-6-yl)phenyl)picolinamide] | 0.969 | 0.351 | 6.14 |  |  | 
[2H]C([2H])=C([2H])C(=O)N[C@@H]1CCCN(Cc2ccnc(C(=O)Nc3ccc(-c4cc5c(N6CCOCC6)ncnc5[nH]4)cc3)c2)C1 [Compound B0700-557, (R)-4-((3-(acrylamido-2,3,3-d3)piperidin-1-yl)methyl)-N-(4-(4-morpholino-7H-pyrrolo[2,3-d]pyrimidin-6-yl)phenyl)picolinamide] |  | 0.271 | 0.997 |  |  | 
C=CC(=O)N[C@H]1CCCN(Cc2ccnc(C(=O)Nc3ccc(-c4cc5c(N6CCOCC6)ncnc5[nH]4)cc3)c2)C1 [Compound B0700-704] |  | 0.35 | 0.74 |  |  | 
